# Measurements as given in patent publication US11331314B2, “Amine substituted triazole derivatives and uses thereof” (Bayer Pharma Aktiengesellschaft, priority 2017, dated 2022).
# Columns and labels:
# human V1a receptor = human V1a receptor (Homo sapiens, UniProt P37288); assay: Cellular in vitro assay for determining vasopressin receptor activity, V1a receptor cell line (photoprotein luminescence); type: cell-based; settings: for IC50: CHO cell line transfected with the human V1a receptor, agonist [Arg8]-vasopressin at EC50 concentration, read-out: IC50 hV1a; for ratio IC50 hV2/hV1a: selectivity ratio of the cellular IC50 values
# Method in brief: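 CHO K1 cells stably expressing human V1a receptor with aequorin photoprotein, loaded overnight with coelenterazine. Compounds preincubated 10 min at various concentrations, then challenged with [Arg^8]-vasopressin at EC50 concentration. Calcium-driven luminescence read immediately; IC50 values derived.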
# human V2 receptor = target: T1, human V2 receptor (Homo sapiens, UniProt P30518); assay: Cellular in vitro assay for determining vasopressin receptor activity, V2 receptor cell line (CRE-luciferase); type: cell-based; settings: CHO cell line transfected with the human V2 receptor; agonist [Arg8]-vasopressin at EC50 concentration; read-out: IC50 hV2
# T1 construct: expressed in transfected cells; host or cells: CHO K1 (ATCC) expressing firefly luciferase under a CRE-responsive promoter
# T1 sequence (P30518 whole entry): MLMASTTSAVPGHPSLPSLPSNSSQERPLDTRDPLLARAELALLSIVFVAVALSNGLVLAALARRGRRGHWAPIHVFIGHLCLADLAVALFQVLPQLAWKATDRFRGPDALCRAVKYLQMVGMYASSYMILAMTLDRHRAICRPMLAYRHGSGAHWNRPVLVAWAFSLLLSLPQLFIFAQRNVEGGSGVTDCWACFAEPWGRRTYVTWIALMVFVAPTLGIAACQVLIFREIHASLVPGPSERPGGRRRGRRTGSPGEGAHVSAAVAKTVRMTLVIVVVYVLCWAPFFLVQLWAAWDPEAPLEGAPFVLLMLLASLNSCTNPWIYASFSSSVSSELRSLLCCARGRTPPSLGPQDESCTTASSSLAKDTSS
# human V1a receptor, sequence (P37288 whole entry): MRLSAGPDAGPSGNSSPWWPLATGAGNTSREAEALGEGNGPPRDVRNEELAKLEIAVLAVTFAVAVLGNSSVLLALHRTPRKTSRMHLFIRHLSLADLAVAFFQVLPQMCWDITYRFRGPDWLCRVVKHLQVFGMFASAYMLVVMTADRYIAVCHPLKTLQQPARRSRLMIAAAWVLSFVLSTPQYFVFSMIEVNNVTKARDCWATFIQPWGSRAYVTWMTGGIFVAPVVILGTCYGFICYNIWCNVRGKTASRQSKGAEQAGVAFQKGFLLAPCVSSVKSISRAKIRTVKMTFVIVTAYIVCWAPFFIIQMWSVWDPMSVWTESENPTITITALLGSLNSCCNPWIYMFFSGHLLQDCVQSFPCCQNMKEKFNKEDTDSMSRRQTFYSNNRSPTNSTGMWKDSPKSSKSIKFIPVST
IC50 (human V1a receptor),ratio IC50 hV2/hV1a (human V1a receptor),IC50 (human V2 receptor),SMILES
9.4 nM,41.0,385 nM,"O=C1CC[C@@H](CNc2nc(Cn3nc(-c4ccc(Cl)cc4)n(C[C@H](O)C(F)(F)F)c3=O)nn2CCC(F)(F)F)N1 [Example 109, 5-(4-Chlorophenyl)-2-{[5-({[(2S)-5-oxopyrrolidin-2-yl]methyl}amino)-1-(3,3,3-trifluoropropyl)-1H-1,2,4-triazol-3-yl]methyl}-4-[(2S)-3,3,3-trifluoro-2-hydroxypropyl]-2,4-dihydro-3H-1,2,4-triazol-3-one]"
1.4 nM,121.4,170 nM,"CC(C)(O)CNc1nc(Cn2nc(-c3ccc(Cl)cc3)n(C[C@H](O)C(F)(F)F)c2=O)nn1CCC(F)(F)F [Example 110, 5-(4-Chlorophenyl)-2-({5-[(2-hydroxy-2-methylpropyl)amino]-1-(3,3,3-trifluoropropyl)-1H-1,2,4-triazol-3-yl}methyl)-4-[(2S)-3,3,3-trifluoro-2-hydroxypropyl]-2,4-dihydro-3H-1,2,4-triazol-3-one]"
18.5 nM,148.7,2750 nM,"CC(C)(N)CNc1nc(Cn2nc(-c3ccc(Cl)cc3)n(C[C@H](O)C(F)(F)F)c2=O)nn1CCC(F)(F)F [Example 111, 2-({5-[(2-Amino-2-methylpropyl)amino]-1-(3,3,3-trifluoropropyl)-1H-1,2,4-triazol-3-yl}methyl)-5-(4-chlorophenyl)-4-[(2S)-3,3,3-trifluoro-2-hydroxypropyl]-2,4-dihydro-3H-1,2,4-triazol-3-one]"
114 nM,7.1,810 nM,"O=C1CN(c2nc(Cn3nc(-c4ccc(Cl)cc4)n(C[C@H](O)C(F)(F)F)c3=O)nn2CCC(F)(F)F)CCN1 [Example 112, 4-[3-({3-(4-Chlorophenyl)-5-oxo-4-[(2S)-3,3,3-trifluoro-2-hydroxypropyl]-4,5-dihydro-1H-1,2,4-triazol-1-yl}methyl)-1-(3,3,3-trifluoropropyl)-1H-1,2,4-triazol-5-yl]piperazin-2-one]"
37 nM,9.7,360 nM,"NC(=O)C1CN(c2nc(Cn3nc(-c4ccc(Cl)cc4)n(C[C@H](O)C(F)(F)F)c3=O)nn2CCC(F)(F)F)C1 [Example 113, 1-[3-({3-(4-Chlorophenyl)-5-oxo-4-[(2S)-3,3,3-trifluoro-2-hydroxypropyl]-4,5-dihydro-1H-1,2,4-triazol-1-yl}methyl)-1-(3,3,3-trifluoropropyl)-1H-1,2,4-triazol-5-yl]azetidine-3-carboxamide]"
10.3 nM,–,1800 nM,"CC1(C)CN(c2nc(Cn3nc(-c4ccc(Cl)cc4)n(C[C@H](O)C(F)(F)F)c3=O)nn2CCC(F)(F)F)CCN1 [Example 114, 5-(4-Chlorophenyl)-2-{[5-(3,3-dimethylpiperazin-1-yl)-1-(3,3,3-trifluoropropyl)-1H-1,2,4-triazol-3-yl]methyl}-4-[(2S)-3,3,3-trifluoro-2-hydroxypropyl]-2,4-dihydro-3H-1,2,4-triazol-3-one]"
5.86 nM,0.4,2.07 nM,"CCOC(=O)CNc1nc(Cn2nc(-c3ccc(Cl)cc3)n(C[C@H](O)C(F)(F)F)c2=O)nn1-c1cccc(Cl)c1 [Example 115, Ethyl N-[1-(3-chlorophenyl)-3-({3-(4-chlorophenyl)-5-oxo-4-[(2S)-3,3,3-trifluoro-2-hydroxypropyl]-4,5-dihydro-1H-1,2,4-triazol-1-yl}methyl)-1H-1,2,4-triazol-5-yl]glycinate]"
1.35 nM,1.5,1.98 nM,"COCCNc1nc(Cn2nc(-c3ccc(Cl)cc3)n(C[C@H](O)C(F)(F)F)c2=O)nn1-c1cccc(F)c1 [Example 116, 5-(4-Chlorophenyl)-2-({1-(3-fluorophenyl)-5-[(2-methoxyethyl)amino]-1H-1,2,4-triazol-3-yl}methyl)-4-[(2S)-3,3,3-trifluoro-2-hydroxypropyl]-2,4-dihydro-3H-1,2,4-triazol-3-one]"
66.5 nM,0.3,19.2 nM,"O=c1n(Cc2nc(N3CCCC3)n(-c3cccc(Cl)c3)n2)nc(-c2ccc(Cl)cc2)n1C[C@H](O)C(F)(F)F [Example 117, 5-(4-Chlorophenyl)-2-{[1-(3-chlorophenyl)-5-(pyrrolidin-1-yl)-1H-1,2,4-triazol-3-yl]methyl}-4-[(2S)-3,3,3-trifluoro-2-hydroxypropyl]-2,4-dihydro-3H-1,2,4-triazol-3-one]"
7.79 nM,2.2,17.1 nM,"O=c1n(Cc2nc(N3CCOCC3)n(-c3cccc(F)c3)n2)nc(-c2ccc(Cl)cc2)n1C[C@H](O)C(F)(F)F [Example 119, 5-(4-Chlorophenyl)-2-{[1-(3-fluorophenyl)-5-(morpholin-4-yl)-1H-1,2,4-triazol-3-yl]methyl}-4-[(2S)-3,3,3-trifluoro-2-hydroxypropyl]-2,4-dihydro-3H-1,2,4-triazol-3-one]"
4.66 nM,1.8,8.19 nM,"CN(C)c1nc(Cn2nc(-c3ccc(Cl)cc3)n(C[C@H](O)C(F)(F)F)c2=O)nn1-c1cccc(F)c1 [Example 120, 5-(4-Chlorophenyl)-2-{[5-(dimethylamino)-1-(3-fluorophenyl)-1H-1,2,4-triazol-3-yl]methyl}-4-[(2S)-3,3,3-trifluoro-2-hydroxypropyl]-2,4-dihydro-3H-1,2,4-triazol-3-one]"
0.97 nM,1606.2,1550 nM,"CC1(C)CN(c2nc(Cn3nc(-c4ccc(Cl)cc4)n(C[C@H](O)C(F)(F)F)c3=O)nn2-c2ncccc2Cl)CCN1 [Example 122, 5-(4-Chlorophenyl)-2-{[1-(3-chloropyridin-2-yl)-5-(3,3-dimethylpiperazin-1-yl)-1H-1,2,4-triazol-3-yl]methyl}-4-[(2S)-3,3,3-trifluoro-2-hydroxypropyl]-2,4-dihydro-3H-1,2,4-triazol-3-one]"
2.15 nM,2.1,4.59 nM,"O=c1n(Cc2nc(NCCO)n(-c3cccc(F)c3)n2)nc(-c2ccc(Cl)cc2)n1C[C@H](O)C(F)(F)F [Example 123, 5-(4-Chlorophenyl)-2-({1-(3-fluorophenyl)-5-[(2-hydroxyethyl)amino]-1H-1,2,4-triazol-3-yl}methyl)-4-[(2S)-3,3,3-trifluoro-2-hydroxypropyl]-2,4-dihydro-3H-1,2,4-triazol-3-one]"

SMILES,IC50 (human V1a receptor),ratio IC50 hV2/hV1a (human V1a receptor),IC50 (human V2 receptor)
"CNc1nc(Cn2nc(-c3ccc(Cl)cc3)n(C[C@H](O)C(F)(F)F)c2=O)nn1-c1cccc(Cl)c1 [Example 118, 5-(4-Chlorophenyl)-2-{[1-(3-chlorophenyl)-5-(methylamino)-1H-1,2,4-triazol-3-yl]methyl}-4-[(2S)-3,3,3-trifluoro-2-hydroxypropyl]-2,4-dihydro-3H-1,2,4-triazol-3-one]",16.4 nM,0.1,1.04 nM
"O=c1n(Cc2nc(N3CCC3)n(-c3cccc(F)c3)n2)nc(-c2ccc(Cl)cc2)n1C[C@H](O)C(F)(F)F [Example 121, 2-{[5-(Azetidin-1-yl)-1-(3-fluorophenyl)-1H-1,2,4-triazol-3-yl]methyl}-5-(4-chlorophenyl)-4-[(2S)-3,3,3-trifluoro-2-hydroxypropyl]-2,4-dihydro-3H-1,2,4-triazol-3-one]",6.4 nM,1.0,6.12 nM
